Assay [1] addresses T1, Tyrosine-protein kinase BTK (Homo sapiens, UniProt Q06187). In words: Inhibition of BTK in human Ramos cells assessed as reduction in anti-human IgM F(ab)2-induced ERK phosphorylation preincubated for 10 mins followed by stimulated with antihuman IgM F(ab)2 incubated for 60 mins by Western blot analysis. The format is cell-based. The following applies: time 70.0 min.
Assay [2] deals with T1, Tyrosine-protein kinase BTK. In words: Inhibition of BTK in human Ramos cells assessed as reduction in anti-human IgM F(ab)2-induced BCR mediated PLCgamma2 phosphorylation preincubated for 10 mins followed by stimulated with antihuman IgM F(ab)2 incubated for 60 mins by Western blot analysis. The settings on record: time 70.0 min. The format is cell-based. Background: A western blot detects proteins with antibodies after separation by electrophoresis.

The target is the same in assay [3]. In words: Inhibition of BTK in human Ramos cells assessed as reduction in anti-human IgM F(ab)2-induced BTK phosphorylation at Tyr551 residue preincubated for 10 mins followed by stimulated with antihuman IgM F(ab)2 incubated for 60 mins by Western blot analysis. The format is cell-based. The following applies: time 70.0 min.
Assay [4] shares this target. In words: Inhibition of BTK (unknown origin) using poly(Glu, Tyr) 4:1 as substrate incubated in presence of [gamma33P]ATP by image analyser.
For assay [5] the target is unchanged. Put plainly: Inhibition of BTK in human Ramos cells assessed as reduction in anti-human IgM F(ab)2-induced BTK phosphorylation at Tyr223 residue preincubated for 10 mins followed by stimulated with antihuman IgM F(ab)2 incubated for 60 mins by Western blot analysis. The format is cell-based. The following applies: time 1.0 hrs.

Inhibition and IC50 data for six compounds are collected here from ChEMBL document CHEMBL4765406 (Eur J Med Chem, 2020).

Calls of active or inactive are those of the source. No cut-off for these calls is given here. Some results are limits rather than exact numbers.

T1 sequence (Q06187 whole entry): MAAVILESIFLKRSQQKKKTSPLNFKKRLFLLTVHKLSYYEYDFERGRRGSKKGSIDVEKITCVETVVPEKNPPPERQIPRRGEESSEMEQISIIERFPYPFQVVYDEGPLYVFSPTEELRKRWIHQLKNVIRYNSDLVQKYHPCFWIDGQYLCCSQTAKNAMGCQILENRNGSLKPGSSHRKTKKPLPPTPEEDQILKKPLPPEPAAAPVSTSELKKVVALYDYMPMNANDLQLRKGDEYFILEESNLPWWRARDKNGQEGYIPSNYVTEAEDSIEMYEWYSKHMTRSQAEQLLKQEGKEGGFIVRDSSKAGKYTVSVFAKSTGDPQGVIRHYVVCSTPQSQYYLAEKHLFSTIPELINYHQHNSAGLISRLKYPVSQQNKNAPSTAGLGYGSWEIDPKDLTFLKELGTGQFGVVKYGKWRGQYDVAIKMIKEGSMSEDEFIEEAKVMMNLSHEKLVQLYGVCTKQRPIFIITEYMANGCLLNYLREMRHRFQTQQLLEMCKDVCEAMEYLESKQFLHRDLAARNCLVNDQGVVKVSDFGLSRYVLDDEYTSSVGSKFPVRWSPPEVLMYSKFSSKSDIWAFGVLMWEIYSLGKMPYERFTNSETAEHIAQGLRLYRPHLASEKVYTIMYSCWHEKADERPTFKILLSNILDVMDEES

As a reminder, the IC50 is the concentration that inhibits the measured activity by half. For the compound `c1cn2cc(-c3ccc4cn[nH]c4c3)nc(Nc3ccc(N4CCOCC4)cc3)c2n1` [ENTOSPLETINIB], the inhibition entry in assay [1], in assay [2], in assay [3] and in assay [5] was “Active” in each case. For the same compound, the IC50 in assay [4] was 0.801 µM. For the compound `c1cc2nc(-c3ccc4cn[nH]c4c3)nc(Nc3ccc(N4CCOCC4)cc3)c2[nH]1`, in assay [4], the half-maximal inhibitory concentration (IC50) was > 20 µM. On to `c1cc(N2CCOCC2)ccc1Nc1nc(-c2ccc3cn[nH]c3c2)nc2[nH]ncc12`, for which, in assay [4], the IC50 turned out to be 0.167 µM. Same read-out and setting: the value for `c1nc2c(Nc3ccc(N4CCOCC4)cc3)nc(-c3ccc4cn[nH]c4c3)nc2[nH]1` was 0.073 µM. `c1nc2c(Nc3ccc(N4CCOCC4)cc3)nc(-c3ccc4cn[nH]c4c3)cc2[nH]1`: the inhibition entry in assay [1] is “inactive”. Besides, the IC50 in assay [4] is 0.369 µM. Turning to `c1nc2c(Nc3ccc(N4CCOCC4)cc3)cc(-c3ccc4cn[nH]c4c3)nc2[nH]1`, the IC50 in assay [4] was found to be 1.45 µM.
